The record followed here is US12533337B2, “Pharmaceutical drug containing heterocyclidene acetamide derivative” (SENJU PHARMACEUTICAL CO., LTD., priority 2019, dated 2026).

Common to all, as to type: in vivo
Test [1] has as its system rat scopolamine-induced dry eye model. The test can be described thus: Observation of superficial punctate keratitis (SPK) in a rat scopolamine-induced dry eye model. The procedure: (§1) 1.0 w/v % compound (1) suspension eye drop was administered for an extended period using a rat scopolamine-induced dry eye model prepared by the same method as Test Example 2. The model was treated under a low humidity environment (20% RH or less) only when measuring the number of blinks.
(§2) 5 μL of 1.0 w/v % compound (1) suspension eye drop and vehicle eye drop was administered to the right eye 4 times a day by using a micropipette.
(§3) An effect of improving SPK (SPK score) was evaluated by the same method as Test Example 1 on day 8 of sample administration. The number of blinks of the right eye was measured for 5 minutes under a low humidity environment after 4 hours from the initial administration on day 7 of administration (2 weeks post-surgery) by the same method as Text Example 2.

Test [2] has as its system Vi/Vc zone of the medulla oblongata. The test can be described thus: Measurement of c-Fos positive cell count in the Vi/Vc zone of the medulla oblongata, rat scopolamine-induced dry eye model. Conditions: 0.3 w/v % suspension eye drop.
Procedure: 5 μL of eye drop was administered to the right eye using a micropipette, 4 times a day with an interval of 2 hours or longer. A vehicle eye drop was administered to the Sham group.
After a rat was allowed to bleed to death by perfusion of saline, Zamboni's Fixative was perfused to extract the medulla oblongata. After sectioning the extracted medulla oblongata, the medulla oblongata was stained by immunohistochemical staining by using an anti-c-Fos antibody (product name: Rabbit Anti-Human c-Fos Polyclonal Antibody, sc-52, Santa Cruz Biotechnology, Inc.).
In test [3] the test system is rat scopolamine-induced dry eye model. The test can be described thus: Number of blinks under a low humidity environment in a rat scopolamine-induced dry eye model. Conditions: for number of blinks within 5 minutes / number of blinks within 5 minutes vs vehicle at 0.5 hours: single administration; for number of blinks within 5 minutes: 0.5 hours after. On the procedure: Compound (1) was used as a tested substance. In the same manner as Test Example 1, compound (1) was suspended in a buffer to prepare suspension eye drops with a concentration of compound (1) of 0.1 w/v %, 0.3 w/v %, and 1.0 w/v %. A compound (1)-free vehicle eye drop consisting of only a vehicle was also prepared as a control group.
A rat scopolamine-induced dry eye model was prepared by the same method as Test Example 1.
After about 2.5 hours from implanting an osmotic pump, dry air supplied from an air compressor was sent into an experiment chamber (SJ-1500N, Natsume Seisakusho) to create a low humidity environment (20% RH or lower).
5 μL of a vehicle eye drop or 0.1 w/v %, 0.3 w/v %, or 1.0 w/v % compound (1) suspension eye drop was administered once to the right eye using a micropipette, 0.5 hours before measuring the number of blinks.
After 8 days or more from starting raising the rats in a low humidity environment, the rats were taken out from a breeding cage. The animals were placed in a cage comprised of chain link fencing on all sides (behavior measurement environment cage) to facilitate measurement of the number of blinks. After acclimation for 0.5 hours under a normal environment, the behavior measurement environment cage was transferred to an experiment chamber, and the number of blinks of the right eye of rats was measured for 5 minutes under a low humidity environment. A test was conducted in four separate phases using the same animals after a drug withdrawal period of 2 days or more (crossover test).
By using the same evaluation method as Text Example 2, the sustainability of an effect of improving a subjective symptom was examined.
as §1, §2, §3

“Also recorded” adds a separate entry of the source.

For the molecule `O=C(/C=C1\CCOc2cc(C(F)(F)F)ccc21)Nc1cccc2c1C[C@H](O)CC2` [compound (1), (E)-2-(7-trifluoromethylchroman-4-ylidene)-N-((7R)-7-hydroxy-5,6,7,8-tetrahydronaphthalen-1-yl)acetamide], the “SPK score compared to a vehicle eye drop” value in test [1] (0.3 w/v % suspension eye drop, after 7 days from administration (15 days post-surgery)) is recorded as “significantly reduced”; in test [1] (1.0 w/v % suspension eye drop, 4 times a day, 8 days of repeated administration (Example 4)), “significantly reduced”. In test [1] (0.3 w/v % suspension eye drop, after 14 days from administration (22 days post-surgery)), the “SPK score effect compared to a vehicle eye drop” value was “sustained”. The “c-Fos positive cell count in the Vi/Vc zone of the medulla oblongata compared to a vehicle eye drop” value in test [2] (14 days of administration) is recorded as “reduced”. The “c-Fos positive cell count” value in test [2] (SCOP model, 5 μL right eye 4 times a day for 14 days, Vi/Vc zone, 22 days post-surgery) is on record as 8.8 ± 3.8 cells/section. In addition, the “number of blinks within 5 minutes” value is “reduced” in test [3] (0.1 w/v % suspension eye drop, low humidity); “significant effect” in test [3] (0.3 w/v % suspension eye drop, low humidity); “significant effect” in test [3] (1.0 w/v % suspension eye drop, low humidity (Test Example 2)). The “number of blinks within 5 minutes compared to a vehicle eye drop” value in test [3] (1.0 w/v % suspension eye drop, repeated administration 4 times a day, 4 hours after initial administration on day 7, low humidity (Example 4)) is recorded as “reduced”. In addition, the “number of blinks within 5 minutes vs vehicle at 0.5 hours” value in test [3] (1.0 w/v % suspension eye drop, after 0.5 hours (Example 3)) was “significantly reduced; also recorded: reduced significantly”; in test [3] (1.0 w/v % suspension eye drop, after 4 hours (Example 3)), “significantly reduced; also recorded: reduced significantly”; in test [3] (1.0 w/v % suspension eye drop, after 8 hours (Example 3)), “reduced”.
